Laboratory results as given in patent US5877165A, “Boronated porhyrins and methods for their use” (priority 1997, dated 1999).
Entries after “also recorded” stand apart in the source; their conditions may differ.

Columns and labels:
[1] = Hematological, enzymatic and chemical blood analyses and weight change, mice with KHJJ mammary carcinomas (Examples 8-12, Table 2); type: in vivo, BALB/c mice; conditions: 244 μg/gbw; 17 hr to 4 d
Protocol: Female BALB/c mice (Taconic Farms, Germantown, N.Y.) (20-25 g) were implanted with either KHJJ or EMT-6 tumors. For KHJJ tumors, 1-3 mm^3 tumor fragments were implanted subcutaneously (s.c.) in the dorsal thorax of each mouse using an 18-gauge trocar. For EMT-6 tumors, 2.5×10^5 cells were implanted similarly using a 27-gauge needle. EMT-6 tumor cells were grown alternately in vivo and in vitro. Single-cell suspensions were prepared from mouse-grown tumors by trypsinization. These were grown in cell culture for several passages and then were frozen in 10% DMSO and stored in liquid nitrogen. Prior to implantation in mice, the cells were thawed and grown in tissue culture in Alpha-MEM with 10% FBS for several passages. […]
Levels of glucose [GLU], blood urea nitrogen [BUN], blood creatinine [BCR], alanine transaminase [ALT], aspartate transaminase [AST], alkaline phosphatase [ALP], total protein [TPR], albumin [ALB], and creatine phosphokinase [CPK] were determined in blood plasma using a Cobas Fara II microanalysis system. Blood platelets [PLT] and white blood cells [WBC] were counted using a Serono-Baker System 9000 automated hematology microanalyzer. […]

[2] = Experiment I: hematological, chemical and enzymatic tests, mice bearing KHJJ tumors (Table 7); type: in vivo, BALB/c mice; conditions: 3 ip over 8 hr, ZnDPE 118, NiTCP 183 μg/gbw, median (range)
Protocol: Lipophilic porphyrins 1, 2, 4, 5, and 6 were injected as emulsions in either 3% or 9% CRM and either 6% or 18% PRG with saline as previously described in Example 2 above. Water soluble porphyrins 3 and 7 were dissolved in saline. BPA was solubilized as a fructose complex.
Female BALB/c mice (from Taconic Farms, Germantown, N.Y.) (20-25 g) were implanted with either KHJJ or EMT-6 tumors according to the procedure described in Example 3A above.
Under deep halothane anesthesia leading to euthanasia, right ventricular blood was collected in Microtainer (Becton-Dickinson, Rutherford, N.J.) tubes containing EDTA for hematological analyses and boron assays of whole blood and in Microtainer™ tubes containing lithium heparin for chemical analyses and enzyme assays of blood plasma. Tumor, brain, fat, muscle, and liver tissues were sampled at necropsy for boron analyses.
In Experiment I, NiTCP (183 μg/gbw) and lipophilic, heme derivative ZnDPE (118 μg/gbw) were compared in mice bearing KHJJ mammary tumors. The porphyrins were given as 3% CRM and 6% PrG emulsions in 3 ip injections given over 8 hrs. Animals were euthanized 15 hr, 39 hr, and 90 hr after the last injection.
Hematological, chemical and enzymatic tests were carried out as described in Example 3 above. Nonparametric statistical analyses were carried out using the Wilcoxon Two-Sample Test in accordance with procedures described in Slatkin, D.N., 1995. Boron analyses were conducted in accordance with the procedure described in Example 3 above. Fat and liver tissues were assayed for ^10 B by prompt-gamma spectroscopy as described in Fairchild, et al., 1986. These measurements were multiplied by 5.0 to give total boron concentrations due to the use of boron of natural isotope abundance in the syntheses of all boronated porphyrins reported.

[3] = Overall ranking of boronated porphyrins for BNCT guided by biodistribution and toxicity tests in mice (Table 11)
Protocol: The higher the numerical value, the better the performance of that porphyrin for that property. […] Although VCDP was able to deliver therapeutic amounts of boron to tumor, such side effects such as thrombocytopenia, which was induced within 3 hours after injections, weight loss, and the altered hepatic enzymes were serious enough to rank VCDP considerably behind the TCP's and the TCP-H's (Miura et al., 1992). In addition, the 80-hour drug administration period and the 90-hour blood clearance period are of great inconvenience. Moreover, this 4-day difference between the VCDP and the TCP (or TCP-H) dose and clearance schedules would translate into a 4-day greater delay between initiation of drug administration and neutron irradiation which would allow greater tumor growth to occur.
[…]
biodistribution and toxicity tests in mice. An asterisk indicates

Substance: Nickel Tetracarboranylphenylporphyrin [NiTCP]
- toxicity, in words [1]: non-toxic; also recorded: only slight differences in the results of blood chemical analyses between the NiTCP groups and the solvent-only control groups; also recorded: Weight loss was only observed 17 hours after the last injection of NiTCP
- % Δw ([2]; 15 hr): 0.5 (^- 3.2-4.1) %
- ALP ([2]; 15 hr): 80 (56-86)
- ALT ([2]; 15 hr): 28 (21-32)
- AST ([2]; 15 hr): 81 (60-146)
- BCR ([2]; 15 hr): 0.5 (0.4-0.5)
- BUN ([2]; 15 hr): 32 (27-41)
- CPK ([2]; 15 hr): 66 (41-289)
- GLU ([2]; 15 hr): 199 (183-262)
- PLT ([2]; 15 hr): 733 (579-956)
- % Δw ([2]; 39 hr): 3.9 (3.0-9.2) %
- ALP ([2]; 39 hr): 71 (57-88)
- ALT ([2]; 39 hr): 32 (27-153)
- AST ([2]; 39 hr): 108 (76-442)
- BCR ([2]; 39 hr): 0.4 (0.3-0.4)
- BUN ([2]; 39 hr): 35 (32-43)
- CPK ([2]; 39 hr): 167 (91-227)
- GLU ([2]; 39 hr): 210 (183-260)
- PLT ([2]; 39 hr): 826 (790-927)
- % Δw ([2]; 90 hr): 7.8 (5.9-12.1) %
- ALP ([2]; 90 hr): 40 (37-80)
- ALT ([2]; 90 hr): 27 (26-33)
- AST ([2]; 90 hr): 138 (46-285)
- BCR ([2]; 90 hr): 0.4 (0.4-0.4)
- BUN ([2]; 90 hr): 24 (14-34)
- CPK ([2]; 90 hr): 69 (52-94)
- GLU ([2]; 90 hr): 218 (172-242)
- PLT ([2]; 90 hr): 790 (553-839)
- Drug tolerance/deliverable boron (ranking) [3]: 4
- Lipophilicity (ranking) [3]: 2
- Tumor uptake (normalized) (ranking) [3]: 3
- Tumor:Blood (ranking) [3]: 3
- toxicity, in words (general) ([3]; in vivo, at (potentially) therapeutic doses): substantially less toxic
